Data published in publication PMC7595621, “Quorum sensing N-Acyl homoserine lactones are a new class of anti-schistosomal” (PLoS Neglected Tropical Diseases, 2020).
Read-outs that look alike come from different tables or passages of the source.

Experiments:
[1] = test system: S. mansoni schistosomula; assay: Screening of S. mansoni schistosomula (Roboworm, motility and phenotype); assay type: cell-based, Schistosoma mansoni; settings: for EC50: Schistosoma mansoni; for Selectivity index, schistosomula motility: HepG2 CC50 / schistosomula motility EC50; for Selectivity index, schistosomula phenotype: HepG2 CC50 / schistosomula phenotype EC50
Description: Biomphalaria glabrata (NMRI and the previously described pigmented strains) snails infected with S. mansoni (Puerto Rican strain) were shed for 2 hrs under light at 26 °C. Cercariae were collected, mechanically transformed into schistosomula and subsequently prepared for high throughput screening (HTS) on the Roboworm platform as previously described. Schistosomula were cultured in Basch Media (composed of BME media, 10% M169 media, 0.5x MEM vitamins, 10% Schneider’s insect media, 15.6mM Hepes, 5% heat inactivated FBS, 2x Antibiotic/anti-mycotic (Sigma-Aldrich, UK) solution (final concentrations shown)).
EC50 values were calculated from the titrated concentrations by non-linear regression, after log transformation of concentrations and data normalization using GraphPad Prism 7.02.
Fig 2 Anti-schistosomula activity of the eight analogues compared to parent compound 1. […] Test plates were incubated at 37°C for 72 hrs in an atmosphere containing 5% CO2. At 72hrs, schistosomula were scored using the Roboworm platform for both motility (A) and phenotype (B). Any compound that induced a score of below -0.35 for motility (A) and -0.15 for phenotype (B) were considered a hit. Black squares indicate the most positive effect on motility or phenotype; grey scale from dark grey to lighter shades of grey indicates a progressive reduced compound efficacy; white squares indicate no effect on either phenotype or motility. Z´ values for this screen was 0.41741 for motility and 0.57275 for phenotype. (C) Phenotypes of schistosomula when treated with 10μM of each of the test compounds and controls.
Supplementary file pntd.0008630.s003.tif: S1 Fig Initial schistosomula screens of the 14 compounds and their intermediate analogues. […] Test plates were incubated at 37°C for 72 hrs in an atmosphere containing 5% CO2. At 72hrs, schistosomula were scored using the Roboworm platform for both motility and phenotype as previously described. A) Of the 14 compounds evaluated, two fell within the hit region. Z’ scores for motility and phenotype were 0.40079 and 0.56846 respectively. […] Z´ scores for motility and phenotype were 0.37864 and 0.47882 respectively. *Average EC50 value across motility and phenotype is presented for each compound. (TIF) Click here for additional data file.

[2] = test system: adult S. mansoni worm pairs; assay: Screening of adult S. mansoni blood flukes (7-week worms), WHO-TDR motility scoring; assay type: cell-based, Schistosoma mansoni; settings: for EC50: 7-week worms, motility, 95% confidence interval; for EC50 / effect on adult worm motility/lethality: 72 hr; for effect on adult worm motility/lethality: highest dose 20 μM
Description: (§1) Adult S. mansoni parasites were recovered by hepatic portal vein perfusion from TO outbred mice (HsdOla:TO, Tuck-Ordinary, Envigo, UK) that were percutaneously infected seven weeks earlier with 180 cercariae. Three adult worm pairs per well, in duplicate, were transferred into 48 well plates (Fisher Scientific, Loughborough, UK) and cultured at 37 °C in an atmosphere containing 5% CO2 in DMEM (Gibco, Paisley, UK) containing 10% v/v HEPES, 10% v/v Foetal Bovine Serum (FBS), 0.7% v/v 200 mM L-Glutamine and 1X v/v penicillin-streptomycin. Worms were dosed with test compounds at 20 μM, 10 μM, 5 μM, 2.5 μM, 1.25 μM and 0.625 μM (in 0.2% DMSO) for 72 hr. Adult worms were scored manually at 72 hr using the WHO-TDR metric scoring system as described previously. Dose response curves and EC50 values were obtained by non-linear regression, after log transformation of concentrations and data normalization using GraphPad Prism 7.02. At 72 hr, the medium from each well was also collected, centrifuged at 350 x g for 2 min. Afterwards, the supernatant was removed, and the remaining egg pellet re-suspended in 10% v/v formalin. Eggs that were oval and contained a fully formed lateral spine were subsequently counted.
(§2) Fig 3 Adult schistosome motility and egg production are differentially affected by the nine N-acyl homoserine lactones. […] Parasite motility was evaluated for each sex and scored using the WHO-TDR scoring system (0 = Dead parasite, 4 = Normal/Healthy movement). B) Culture media were collected from some adult co-cultures at 72 hrs and eggs present in the media were counted. p values are indicated as follows: * <0.05, ** <0.01, *** <0.001.
Initially, these screens were conducted at 20 μM; any compounds that scored a 1 or 0 for motility at this primary concentration were further titrated until no further effect was observed. […] Similar to the schistosomula assays, the differences observed in adult parasite motility when treated with the (R)- and (S)- enantiomers of Compound 1 were striking. […] Estimated EC50s for male and female parasites for these two enantiomers were determined (Table 2), with Compound 5 ((R)- enantiomer) having greater activity than Compound 6 ((S)- enantiomer).

[3] = Cell cytotoxicity assay (MTT); assay type: cell-based, human; settings: human, HepG2 cells, MTT, 95% confidence interval, called EC50
Description: The cytotoxicity of each compound was assessed on human HepG2 cells as described previously [17]. Briefly, 2 x 10^4 cells/well were seeded in black walled 96-well microtiter plates (Fisher Scientific, Loughborough, UK) and incubated for 24 hr at 37°C in a humidified atmosphere containing 5% CO2. […] Following a further incubation for 24 hr, the MTT assay was performed as previously described [17, 27]. Dose response curves were obtained by non-linear regression, after log transformation of concentrations and data normalization using GraphPad Prism 7.02.

[4] = test system: adult S. mansoni worm pairs (egg production); assay: In vitro egg production of adult S. mansoni worm pairs; assay type: cell-based, Schistosoma mansoni; settings: 72 hr, compared to DMSO
Description: as §1, §2
As morbidity associated with schistosomiasis is caused by egg-induced granuloma formation in tissues and the subsequent development of fibrotic lesions around these granulomas, compound-mediated modulation of in vitro egg production (as a surrogate for the in vivo pathology initiator) was next assessed (Fig 3B). […] In comparison to the negative control DMSO, in which egg counts ranged from 300–594 (Average—408), all N-Acyl homoserine lactones affected fecundity.

[5] = test system: S. aureus ATCC 29213; assay: Broth microdilution MIC and IC50 determination, S. aureus; assay type: cell-based, Staphylococcus aureus; settings: Staphylococcus aureus, ATCC29213, 24 h, 24 hr
Description: (§3) S. aureus ATCC 29213 and E. coli ATCC 25922 were cultured in Luria-Bertani (LB) medium at 37°C with aeration at 200 rpm for 24 hr, with all procedures performed in a biosafety level 2 (BSL2) cabinet. Stationary phase cultures were then used for minimum inhibitory concentration (MIC) determination using the broth microdilution method, in fresh LB medium, in a 96-well plate. All compounds were tested in triplicate using an initial bacterial concentration of 5.0 × 10^5 colony forming units (CFU)/mL at a final concentration of 125 mg/L (5% and 2.5% v/v methanol). Compounds with no visible growth at 125 mg/L were further evaluated with progressing dilutions. […] Dilutions were repeated in three independent experiments where the optical density (OD600) was measured in a Hidex plate spectrophotometer and absorbance data used for the calculation of an IC50 value. The IC50 value was obtained from a dose response titration (125–0.09 mg/L). Dose response curves were obtained by non-linear regression, after log transformation of concentrations and data normalization using GraphPad Prism 7.02.
(§4) As Compound 1 was structurally similar to N-acyl homoserine lactones, a compound class involved in bacterial quorum sensing, we decided to assess its antimicrobial activity and determine if enantiomer separation or lactone ring substitution would change this activity.

[6] = test system: E. coli ATCC 25922; assay: Broth microdilution MIC and IC50 determination, E. coli; assay type: cell-based; settings: Escherichia coli, ATCC25922, 24 h, 24 hr
Description: as §3, §4

[7] = test system: juvenile S. mansoni worms; assay: Propidium iodide (PI) staining of juvenile S. mansoni worms; assay type: cell-based, Schistosoma mansoni; settings: 15 μM, 72 hrs
Description: Juvenile S. mansoni parasites were recovered via hepatic portal vein perfusion from TO outbred mice (HsdOla:TO, Tuck-Ordinary, Envigo, UK) that were infected percutaneously three weeks earlier with 4000 cercariae. Preparation and centrifugation of juvenile worms have been described previously. […] After motility quantification, 2 μg/mL of PI was added to each well and the plate returned to 37°C, 5% CO2 for 15 minutes. Each well was subsequently imaged on the Roboworm platform using brightfield and fluorescent microscopy (excitation wavelength = 580 nm; emission wavelength = 604 nm). The number of PI positive vs PI negative juvenile worms were cross-checked with the motility scores obtained by our scoring matrix, and the data reported as percentage of PI positive across all parasites within the well. EC50 values were calculated from the motility scores obtained from the dose response titration (as detailed above) and dose response curves were obtained by non-linear regression, after log transformation of concentrations and data normalization using GraphPad Prism 7.02.
Three week juvenile schistosomes, incubated with compounds (1), (3) or controls for 72 hrs, were subsequently cultured with PI at a final concentration of 2 μg/mL for 15 minutes at 37 °C in an environment containing 5% CO2. PI positive parasites (dead) were counted and the percent live vs dead in each well is indicated. A) Quantification of compound (1) mediated juvenile death. B) Quantification of compound (3) mediated juvenile death.

[8] = 72 hrs, 95% confidence interval, read-out: SCHISTOSOMULA EC50 Motility
[9] = 72 hrs, 95% confidence interval, read-out: SCHISTOSOMULA EC50 Phenotype
[10] = Schistosoma mansoni, read-out: ADULT WORM EC50 Female
[11] = Schistosoma mansoni, read-out: ADULT WORM EC50 Male

SMILES: CC(Br)C(=O)NC1CCOC1=O (centres unmarked) [Compound 2, 2-bromo-N-(2-oxotetrahydrofuran-3-yl)propanamide]
- EC50 [1, 8]: > 10 µM
- EC50 [1, 9]: > 10 µM
- EC50 [2, 10]: > 20 µM
- EC50 [2, 11]: > 20 µM
- effect on adult worm motility/lethality [2]: no activity
- CC50 at 24 h [3]: > 200 µM

SMILES: CC(Br)C(=O)NC1CCSC1=O (centres unmarked) [Compound 4, 2-bromo-N-(2-oxotetrahydrothiophen-3-yl)propanamide]
- Selectivity index, schistosomula motility [1]: 15.4
- Selectivity index, schistosomula phenotype [1]: 14.4
- EC50 ([2]; read-out: ADULT WORM EC50 Female): > 10 µM
- EC50 ([2]; read-out: ADULT WORM EC50 Male): > 10 µM
- EC50 [2, 10]: 18.4 µM
- EC50 [2, 11]: 10.5 µM
- effect on adult worm motility/lethality [2]: only demonstrated lethality at the highest concentration

SMILES: O=C(CBr)N[C@@H]1CCOC1=O [Compound 5, (R)-2-bromo-N-(2-oxotetrahydrofuran-3-yl)acetamide]
- Selectivity index, schistosomula motility [1]: 16.3
- Selectivity index, schistosomula phenotype [1]: 12.7
- EC50 [1, 8]: 3.1 µM
- EC50 [1, 9]: 4 µM
- EC50 [2, 10]: > 10 µM
- EC50 [2, 11]: > 10 µM
- effect on adult worm motility/lethality [2]: complete immobility
- effect on egg production (fecundity) [4]: reduced egg production
- CC50 at 24 h [3]: 50.6 µM
- MIC ([5]; no visible growth): 125 µg/mL
- MIC ([5]; value in square brackets): 563 µM
- MIC ([6]; no visible growth): 125 µg/mL
- MIC ([6]; value in square brackets): 563 µM

SMILES: O=C(CBr)N[C@H]1CCOC1=O [Compound 6, (S)-2-bromo-N-(2-oxotetrahydrofuran-3-yl)acetamide]
- EC50 [1, 8]: > 10 µM
- EC50 [1, 9]: > 10 µM
- anti-schistosomula activity (phenotype and motility) ([1]; titration 10 to 0.625 μM, 72 hrs): no anti-schistosomula activity was observed
- Selectivity index, adult worm male ([2]; HepG2 CC50 / adult male EC50): 6.3
- EC50 [2, 10]: > 20 µM
- effect on adult worm motility/lethality [2]: did not have this effect
- effect on egg production (fecundity) [4]: reduced egg production
- CC50 at 24 h [3]: > 100 µM
- MIC ([5]; no visible growth): > 125 µg/mL
- MIC ([5]; value in square brackets): > 563 µM
- MIC ([6]; no visible growth): > 125 µg/mL
- MIC ([6]; value in square brackets): > 563 µM

SMILES: O=C(CCl)NC1CCOC1=O (centres unmarked) [Compound 7, 2-chloro-N-(2-oxotetrahydrofuran-3-yl)acetamide]
- effect on adult worm motility/lethality [2]: No lethality/motility defects were observed

SMILES: O=C(CCl)NC1CCSC1=O (centres unmarked) [Compound 8, 2-chloro-N-(2-oxotetrahydrothiophen-3-yl)acetamide]
- effect on adult worm motility/lethality [2]: No lethality/motility defects were observed

SMILES: CC(Cl)C(=O)NC1CCOC1=O (centres unmarked) [Compound 9, 2-chloro-N-(2-oxotetrahydrofuran-3-yl)propanamide]
- effect on adult worm motility/lethality [2]: No lethality/motility defects were observed

SMILES: O[C@H]([C@H](O)COC(c1ccccc1)(c1ccccc1)c1ccccc1)[C@@H](O)COC(c1ccccc1)(c1ccccc1)c1ccccc1 [Compound E, (2R,3s,4S)-1,5-bis(trityloxy)pentane-2,3,4-triol]
- effect on schistosomula motility and phenotype metrics in initial screen ([1]; 10 μM, 72 hrs): negatively affected both schistosomula motility and phenotype metrics
- EC50 ([1]; 72 h, read-out: average EC50 for phenotype and motility, schistosomula): 5.6 µM

SMILES: CC(=O)OC[C@H]1O[C@@H]([S-])[C@H](OC(C)=O)[C@@H](OC(C)=O)[C@@H]1OC(C)=O.CCP(CC)CC.[Au+] [auranofin, reference compound]
- Percent P.I positive parasites [7]: 100%
